Laboratory results from patent US9855236B2, “Pharmaceutical compositions comprising DGLA and/or 15-HETrE and methods of use thereof” (Dignity Sciences Limited, priority 2011, dated 2018).

Columns and labels:
[1] = tested on: UV-induced edema and erythema; assay: Sinclair miniature swine phototoxicity model: sites exposed to UV, then treated topically for 7 days (treatment); format: in vivo; settings: for average Draize score as compared to test sites treated with the control vehicle: test sites first exposed to UV radiation, then treated topically twice daily for 7 days, any of the tested dosages, vehicle ethanol, FIGS. 1-6; for treating or reversing UV induced erythema: topical application after UV exposure
Protocol: Compositions comprising DGLA and/or 15-HETrE were tested for their ability to treat and/or prevent edema and erythema (e.g., UV induced erythema). In an exemplary method, a Sinclair miniature swine model of phototoxicity testing was employed to examine the effects of such compositions on UV-induced edema and erythema. Miniature swine were chosen for these studies as they have a skin structure that closely resembles that of humans. The miniature swine used in these studies were fed standard Sinclair S-9 ration or equivalent, once a day at a maintenance amount and had ad libitum access to deep well water. Throughout the study, the swine were housed individually in cages (˜3×5 ft) constructed of stainless steel with self-spanned polyvinyl chloride (PVC)-coated expanded metal flooring. The animal housing rooms were set to maintain a room temperature of 16 to 27° C. (61 to 81° F.), with fluorescent lights providing an approximate 12-hr light/12-hr dark photoperiod. The animals were acclimated for approximately 5 days prior to the start of dosing. During acclimation, animals were subject to a physical examination by a veterinarian and any animal with questionable health was excluded from these studies. For these studies, two groups each consisting of three animals (#1-#3) were used. For each animal, ten sites (e.g., dose sites) for were established on the torso and the hair at the site was clipped with an electric clipper. These sites were then shaved and demarcated by tattooing at least four days prior to the start of initial dosing on study day 1. The dose sites may be shaved with a razor the day prior to initial dose administration and prior to the second and third application when applicable. The sites (approximately 4 cm^2 in size) were evenly split on the left and right side with 5 sites demarcated on each side. Each animal was topically administered a composition comprising a control vehicle (ethanol), DGLA or HETrE to the demarcated test sites on the animal before and/or after exposure of the test sites to UV radiation. Specifically, a 0.1 mL dose of a composition comprising 1 mg/mL, 10 mg/mL, or 100 mg/mL of DGLA and a 0.1 mL dose of a composition comprising 0.1 mg/mL, 1.0 mg/mL, or 10 mg/mL 15-HETrE was applied to separate 4 cm^2 areas of the skin (e.g., test sites) on each animal to achieve a dose per area of 0.1 mg/4 cm^2, 1.0 mg/4 cm^2, or 10.0 mg/4 cm^2 DGLA or 0.1 mg/4 cm^2, 1.0 mg/4 cm^2, or 10.0 mg/4 cm^2 15-HETrE, respectively. Such compositions were applied via a pipette twice daily with approximately seven hours between administrations over 7 days. Table 1 below outlines the dosing regimen for the 10 sites on each animal and indicates the day that the animal was administered a dose of UV radiation. […]

[2] = tested on: UV-induced edema and erythema; assay: Sinclair miniature swine phototoxicity model: sites treated topically for 7 days, then exposed to UV (prevention); format: in vivo; settings: for prevention of UV-induced erythema: topical before UV exposure; for average Draize score as compared to test sites treated with the control vehicle: test sites first treated topically twice daily for 7 days, then exposed to UV radiation, vehicle ethanol, FIGS. 7-12
Protocol: Compositions comprising DGLA and/or 15-HETrE were tested for their ability to treat and/or prevent edema and erythema (e.g., UV induced erythema). In an exemplary method, a Sinclair miniature swine model of phototoxicity testing was employed to examine the effects of such compositions on UV-induced edema and erythema. Miniature swine were chosen for these studies as they have a skin structure that closely resembles that of humans. The miniature swine used in these studies were fed standard Sinclair S-9 ration or equivalent, once a day at a maintenance amount and had ad libitum access to deep well water. Throughout the study, the swine were housed individually in cages (˜3×5 ft) constructed of stainless steel with self-spanned polyvinyl chloride (PVC)-coated expanded metal flooring. The animal housing rooms were set to maintain a room temperature of 16 to 27° C. (61 to 81° F.), with fluorescent lights providing an approximate 12-hr light/12-hr dark photoperiod. The animals were acclimated for approximately 5 days prior to the start of dosing. During acclimation, animals were subject to a physical examination by a veterinarian and any animal with questionable health was excluded from these studies. For these studies, two groups each consisting of three animals (#1-#3) were used. For each animal, ten sites (e.g., dose sites) for were established on the torso and the hair at the site was clipped with an electric clipper. These sites were then shaved and demarcated by tattooing at least four days prior to the start of initial dosing on study day 1. The dose sites may be shaved with a razor the day prior to initial dose administration and prior to the second and third application when applicable. The sites (approximately 4 cm^2 in size) were evenly split on the left and right side with 5 sites demarcated on each side. Each animal was topically administered a composition comprising a control vehicle (ethanol), DGLA or HETrE to the demarcated test sites on the animal before and/or after exposure of the test sites to UV radiation. Specifically, […] comprising 0.1 mg/mL, 1.0 mg/mL, or 10 mg/mL 15-HETrE was applied to separate 4 cm^2 areas of the skin (e.g., test sites) on each animal to achieve a dose per area of 0.1 mg/4 cm^2, 1.0 mg/4 cm^2, or 10.0 mg/4 cm^2 DGLA or 0.1 mg/4 cm^2, 1.0 mg/4 cm^2, or 10.0 mg/4 cm^2 15-HETrE, respectively. Such compositions were applied via a pipette twice daily with approximately seven hours between administrations over 7 days. Table 1 below outlines the dosing regimen for the 10 sites on each animal and indicates the day that the animal was administered a dose of UV radiation. For example, for test sites 5-7, the sites were first exposed to UV radiation on day 4 and then contacted topically with DGLA or HETrE on days 4-10. Additionally, for example, for test sites 8-10, the sites were topically contacted with DGLA or HETrE on days 1-7 and then exposed to UV radiation on day 8. [table] Animals receiving UV light were anesthetized via isoflurane gas and 100% oxygen. To exposure the animals to UV, a bank of fluorescent lamps utilizing 10 UVA and 1 UVB bulb was then suspended over the animal. The correct dose level of UV light applied to the designated dose site was verified using a Solar Light® light meter. Animals were exposed to MED/hi of 4 for a time period of 21 minutes yielding a MEDi of 1.4. […]

SMILES	average Draize score as compared to test sites treated with the control vehicle [1]	treating or reversing UV induced erythema [1]	prevention of UV-induced erythema ([2]; dose of 0.01, 0.1, or 1.0 mg/mL HETrE)	average Draize score as compared to test sites treated with the control vehicle [2]	skin irritation by the high dose ([2]; 10 mg/mL dose of DGLA, topical, prevention of erythema could not be determined at this dose)	prevention of UV-induced erythema ([2]; dose of 0.1 or 1.0 mg/mL DGLA)
CCCCCC(O)/C=C/C=C\C/C=C\CCCCCCC(=O)O (stereo not drawn) [HETrE, 15-Hydroxy-eicosa-8(Z),11(Z),13(E)-trienoic acid]	did not exhibit an appreciable difference	not capable of treating or reversing UV induced erythema	able to prevent UV-induced erythema	significant reduction	–	–
CCCCC/C=C\C/C=C\C/C=C\CCCCCCC(=O)O [DGLA, cis-8,11,14-eicosatrienoic acid]	did not exhibit an appreciable difference	not capable of treating or reversing UV induced erythema	–	significant reduction	irritating to the skin	able to prevent UV-induced erythema
